As usually defined, the AUC is the area under the concentration-time curve, a measure of exposure. Read a high AUC as more exposure.

The source of these data is patent US8703199B2, “Pharmaceutical compositions of adsorbates of amorphous drug” (Bend Research, Inc., priority 2001, dated 2014).

A short description of series [1]: nuclear magnetic resonance (NMR) test of dissolved Drug 2 in deuterated MFD solution. The series is classed as physicochemical. The settings on record: after equilibration for 3 days. The protocol:
The adsorbate of Example 9 and the crystalline drug of Control 2A were evaluated using a nuclear magnetic resonance (NMR) test. In this test, 0.690 mg of the adsorbate of Example 9, or 0.174 mg of Control 2, was added to a microcentrifuge tube. The tubes were placed in a 37° C. temperature-controlled chamber, and 1.7 mL for Example 9, or 1.8 mL for Control 2A, of 2 wt % deuterated MFD solution (d-MFD) at pH 6.5, 37° C., and 290 mOsm/kg was added. The samples were quickly mixed using a vortex mixer for 60 seconds. […] The supernatant was then carefully transferred to an 8 mm glass NMR tube for Example 9. […]
Fluorine spectra of the sample were recorded at 282.327 MHz on a Varian Gemini 2000, 300 MHz NMR equipped with a Nalorac 8 mm indirect detection probe. […] Drug resonances were integrated relative to the internal standard peak and the drug concentration determined. The given experiment time was calculated from the time the solvent was added to the solid sample until half of the time the spectrum had been acquired by the NMR. For example, when the spectra has been recorded for 2 hours after the sample was equilibrated for 30 minutes the time listed for the NMR result is 90 minutes. […]
The adsorbates of Example 13 and Example 14 were evaluated using the nuclear magnetic resonance (NMR) test described in Example 11. […]

A short description of series [2]: in vitro dissolution test, microcentrifuge method, Drug 2 in 0.5 wt % MFD solution. The class given is physicochemical. Particulars: for AUC / Drug 2 Concentration: 0.5 wt % MFD solution pH 6.5. The protocol:
The adsorbate of Example 6 and the crystalline drug of Control 2A were evaluated in an in vitro dissolution test using a microcentrifuge method as in Example 2. In this test, 9 mg of the adsorbate of Example 6, or 1.8 mg of Control 2A, was added to a microcentrifuge tube. The tubes were placed in a 37° C. temperature-controlled chamber, and 1.8 mL of 0.5 wt % MFD solution at pH 6.5 and 290 mOsm/kg was added. The samples were quickly mixed using a vortex mixer for about 60 seconds. The samples were centrifuged at 13,000 G at 37° C. for 1 minute. The resulting supernatant solution was then sampled and diluted 1:5 (by volume) with methanol. Diluted samples were analyzed by HPLC at a UV absorbance of 256 nm using a Waters Symmetry C8 column and a mobile phase consisting of 15% (0.2% H3PO4)/85% methanol. The contents of the tubes were mixed on the vortex mixer and allowed to stand undisturbed at 37° C. until the next sample was taken. Samples were collected at 4, 10, 20, 40, 90, and 1200 minutes. […]

Take `CCOC(=O)N1c2ccc(C(F)(F)F)cc2[C@@H](N(Cc2cc(C(F)(F)F)cc(C(F)(F)F)c2)C(=O)OC)C[C@H]1CC` [Control 2A, [2R,4S] 4-[(3,5-bis-trifluoromethyl-benzyl)-methoxycarbonyl-amino]-2-ethyl-6-trifluoromethyl-3,4-dihydro-2H-quinoline-1-carboxylic acid ethyl ester]: the “dissolved Drug 2 concentration” value in series [1] is 13 μgA/mL. The AUC in series [2] (0 min) came to 0 µg·min/mL; in series [2] (4 min), 6 µg·min/mL; in series [2] (10 min), 21 µg·min/mL; in series [2] (20 min) it was 71 µg·min/mL; in series [2] (40 min) it was 190 µg·min/mL; in series [2] (90 min), 570 µg·min/mL. The AUC in series [2] (1200 min) was 14,700 min * μg/mL. Further, the “Drug 2 Concentration” value in series [2] (0 min) stood at 0 µg/mL; in series [2] (4 min), 3 µg/mL; in series [2] (10 min), 2 µg/mL; in series [2] (20 min), 8 µg/mL; in series [2] (40 min), 4 µg/mL; in series [2] (90 min), 11 µg/mL. Besides, in series [2] (1200 min), the “Drug 2 Concentration” value amounted to 15 µg/mL. For the same molecule, the AUC90 in series [2] (Drug 2, 0.5 wt % MFD solution) was 570 µg·min/mL. For the same molecule, the “Cmax,90” value in series [2] (Drug 2, 0.5 wt % MFD solution) came to 11000 ng/mL.
